Assay results from US8685986B2, “Medical composition for treatment or prophylaxis of glaucoma” (Ube Industries, Ltd., priority 2009, dated 2014).
Counter-ions that a name gives are not always drawn. Like-named read-outs stand apart in the source and are kept apart here.

What was measured:
human EP4 receptor = human EP4 receptor (Homo sapiens (Human), UniProt P35408); experiment: Measurement of EP4 receptor binding affinity ([3H]PGE2 displacement, membrane fraction of Chem-1 cells)
Experimental: (§1) With regard to EP3 and EP4 receptors, measurements of receptor binding affinity were carried out according to the following methods in the same manner as in Test example 1.
(§2) The membrane fraction was recovered on glass fiber filter paper (GF/B, available from Whatman PLC) pretreated with 0.3% polyethyleneimine by using a cell harvester (M30R, available from Brandel Inc.), and after washing with a buffer solution (50 mM HEPES-NaOH (pH 7.4), 500 mM NaCl, 0.1% BSA), radioactivity was measured with a liquid scintillation analyzer (2000CA, available from Packard). […] The dissociation constant (Kd value) was calculated by Scatchard analysis.

human EP3 receptor = human EP3 receptor (Homo sapiens (Human), UniProt P43115); experiment: Measurement of EP3 receptor binding affinity ([3H]PGE2 displacement, membrane fraction of Chem-1 cells)
human EP3 receptor, sequence (P43115 whole entry): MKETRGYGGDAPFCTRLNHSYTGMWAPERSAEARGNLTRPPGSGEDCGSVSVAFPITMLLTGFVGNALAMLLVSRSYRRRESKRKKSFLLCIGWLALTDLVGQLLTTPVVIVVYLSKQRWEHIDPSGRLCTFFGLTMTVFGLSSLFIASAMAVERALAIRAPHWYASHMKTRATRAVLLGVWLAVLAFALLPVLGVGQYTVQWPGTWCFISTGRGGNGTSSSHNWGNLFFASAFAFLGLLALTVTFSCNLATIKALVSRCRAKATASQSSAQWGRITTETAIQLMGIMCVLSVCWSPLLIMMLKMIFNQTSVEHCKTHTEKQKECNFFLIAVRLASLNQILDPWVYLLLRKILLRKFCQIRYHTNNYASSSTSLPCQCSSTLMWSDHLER
Experimental: as §1
as §2, with “Tris-HCl” for “HEPES-NaOH”, “7.4)),” for “7.4), 500 mM NaCl, 0.1% BSA),”

human EP2 receptor [1] = molecular target: T1, human EP2 receptor (Homo sapiens (Human), UniProt P43116); experiment: Measurement of EP2 agonist activity (cAMP amount in HEK 293 cells); format: cell-based; settings: cAMP increase in HEK 293 cells expressing human EP2 receptor, 30 minutes
T1 sequence (P43116 whole entry): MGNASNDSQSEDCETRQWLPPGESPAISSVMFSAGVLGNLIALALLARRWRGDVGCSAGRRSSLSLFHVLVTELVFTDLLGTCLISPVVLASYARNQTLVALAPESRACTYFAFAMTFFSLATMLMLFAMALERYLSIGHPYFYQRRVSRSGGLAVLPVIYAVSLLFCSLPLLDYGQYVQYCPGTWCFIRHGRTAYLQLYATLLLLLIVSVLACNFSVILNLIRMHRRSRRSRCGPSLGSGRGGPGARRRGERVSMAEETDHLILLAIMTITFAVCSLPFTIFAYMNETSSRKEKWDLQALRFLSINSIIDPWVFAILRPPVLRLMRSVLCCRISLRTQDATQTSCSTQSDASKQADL
Experimental: Measurement of EP2 agonist activity was carried out according to the method of Wilson et al. (European Journal of Pharmacology, 501, 49 (2004)). HEK 293 cells (ES-562-C, available from Euroscreen S.A.) expressed human EP2 receptor were cultured in a MEM medium containing 10% FBS and seeded at 2×10^4 cells per each well of a 96-well plate. On the next day, the medium was replaced with serum-free MEM medium containing 3-isobutyl-1-methylxanthine (final concentration: 500 μM) and after culturing for 30 minutes, a test compound dissolved in dimethylsulfoxide was added followed by allowing to stand undisturbed in a carbon dioxide gas incubator. After 30 minutes, an amount of cAMP in the cells was measured with a cAMP Biotrak EIA System kit (available from GE Healthcare Bioscience).

human EP2 receptor [2] = molecular target: T1, human EP2 receptor; experiment: Measurement of EP2 receptor binding affinity ([3H]PGE2 displacement, membrane fraction of HEK293 cells)
Experimental: Measurement of EP2 receptor binding affinity was carried out according to the method of Abramovitz et al. (Biochimica et Biophysica Acta, 1483, 285 (2000)). […] The membrane fraction was recovered on glass fiber filter paper (GF/B, available from Whatman PLC) using a cell harvester (M30R, available from Brandel Inc.), and after washing with a buffer solution (10 mM MES-KOH (pH 6.0), 10 mM MgCl2), radioactivity was measured with a liquid scintillation analyzer (2000CA, available from Packard). […] The dissociation constant (Kd value) was calculated by Scatchard analysis.

human EP4 receptor, sequence (P35408 whole entry): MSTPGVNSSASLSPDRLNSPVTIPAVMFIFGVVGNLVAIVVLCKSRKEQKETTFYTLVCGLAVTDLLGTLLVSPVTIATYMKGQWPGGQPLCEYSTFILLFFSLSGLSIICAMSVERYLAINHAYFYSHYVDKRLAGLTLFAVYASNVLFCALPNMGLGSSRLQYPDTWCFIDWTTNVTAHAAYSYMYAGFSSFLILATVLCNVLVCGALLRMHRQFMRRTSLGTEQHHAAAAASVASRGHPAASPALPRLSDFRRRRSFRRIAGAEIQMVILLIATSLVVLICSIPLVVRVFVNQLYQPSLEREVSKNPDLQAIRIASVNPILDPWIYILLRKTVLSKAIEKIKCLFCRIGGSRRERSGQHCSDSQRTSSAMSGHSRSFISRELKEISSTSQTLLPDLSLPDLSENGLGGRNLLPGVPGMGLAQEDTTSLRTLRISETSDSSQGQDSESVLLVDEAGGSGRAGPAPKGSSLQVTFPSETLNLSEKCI

SMILES	Ki (human EP4 receptor) [nM]	Ki (human EP3 receptor) [nM]	EC50 (human EP2 receptor [1]) [nM]	Ki (human EP2 receptor [2]; read-out: Ki value of EP2 receptor binding affinity) [nM]	Ki (human EP4 receptor; [3H]PGE2 1 nM, Chem-1 membrane fraction, Table 4) [nM]	Ki (human EP3 receptor; [3H]PGE2 2 nM, Chem-1 membrane fraction, Table 4) [nM]	Ki (human EP2 receptor [2]; PGE2 receptor selectivity, Table 4, read-out: EP2 receptor binding affinity Ki value) [nM]	Ki (human EP2 receptor [2]; [3H]PGE2 10 nM, HEK293 membrane fraction, Table 2, read-out: Ki value of EP2 receptor binding affinity) [nM]
O=C(O)CNc1cccc(CN(Cc2ccc(-c3nccs3)cc2)S(=O)(=O)c2ccc(F)cc2)n1 [Example 4, (6-{(4-Fluorobenzenesulfonyl)[4-(thiazol-2-yl)benzyl]aminomethyl}pyridin-2-ylamino)acetic Acid]	2900	> 10000	0.29	2.8	–	–	–	–
O=C(O)CNc1cccc(CN(Cc2ccc(-c3nccs3)cc2)S(=O)(=O)c2ccccn2)n1 [Example 3]	–	–	0.45	–	4800	> 10000	1.9	1.9
O=C(O)CNc1cccc(CN(Cc2ccc(-c3nccs3)cc2)S(=O)(=O)c2cccnc2)n1 [Example 11, (6-{(Pyridin-3-ylsulfonyl)[4-(thiazol-2-yl)benzyl]aminomethyl}pyridin-2-ylamino)acetic Acid Trifluoroacetate]	2800	> 10000	–	–	–	–	–	–
